Reference: patent US10513723B2 (AMGEN INC., priority 2014, dated 2019)

Key:
[1] = system: Cell line H (CHO cells expressing recombinant antibody); assay: Small scale mock perfusion, % high mannose (HILIC glycan map) of the expressed recombinant glycoprotein; format: cell-based, Chinese hamster
Experimental: Cell lines H was used in this study. Cells were maintained in 3 L Erlenmeyer shake flasks (Corning Life Sciences, Lowell, Mass.) with 1 L working volume and cultivated under standard humidified condition at 36° C., 5% CO2, and shaken at 70 rpm in an automatic CO2 incubator (Thermo Fisher Scientific, Waltham, Mass.). Cells were sub-cultured in a selective growth media containing a 500 nM concentration of methotrexate (MTX) every four days, and subsequently transferred, inoculated and cultured in a growth media for four days before being seeded in a 24 wells plate for the experiments described below. […] Different N-glycan species of antibodies were analyzed by hydrophilic-interaction liquid chromatography (HILIC). The purified antibodies were digested by N-glycosidase F (New England BioLabs, Ipswich, Mass.) at 37° C. for 2 hours to release the glycans. The released glycans were labeled with 2-aminobenzoic acid and cleaned up using GlycoClean S cartridges (Prozyme, […], Calif.). Purified glycans were then desalted and reconstituted in water for assay. HILIC chromatography was performed with a 100 mm×2.1 mm i.d BEH Glycan column using UPLC (Waters Corporation, Milford, Mass.) and the eluted glycans were detected, identified, and qualified by a fluorescence detector based on different elution times of different glycans.

[2] = system: Cell line I (expresses an IgG2 antibody); assay: Fed-batch 2 L bioreactor culture, % high mannose by peptide mapping glycan profiling; format: cell-based; settings: single supplement of 0.1 g/L L-ornithine monohydrochloride on day 0 vs ornithine-free control; samples days 6, 8 and 12; FIG. 8
Experimental: Glycan profiling was performed by peptide mapping. […] Specifically, about 50-70 μg of each antibody was denatured and reduced with 7.0 M guanidine.HCl, 6 mM dithiothreitol (DTT) in 0.2 M tris buffer (pH 7.5) at 37° C. for 30 minutes. Each denatured/reduced sample was alkylated with 14 mM iodoacetic acid at 25° C. for 25 minutes, followed by quenching the reaction by adding 8 mM DTT. […] The buffer-exchanged sample was incubated at 37° C. with 3.5 μg trypsin for 60 minutes. Digestion was quenched by adding 2.2 μL of 10% acetic acid. About 12-17 μg of digested antibody was injected for analysis.
The digested antibody was analyzed using an Agilent 1260 HPLC system directly connected to a Thermo Scientific LTQ-Orbitrap Elite mass spectrometer (Thermo Fisher Scientific Inc., Rockford, Ill.). Proteolytic peptides were separated on a Waters BEH 300 C18 column (Waters Corporation, Milford, Mass.) 2.1×150 mm, 1.7μ particle at 40° C. with a flow rate of 0.2 mL/min. Mobile phase A was 0.02% TFA in water and mobile phase B was 0.018% TFA in acetonitrile. Peptides were eluted with a gradient of 0.5-40% B in 90 minutes, followed by column washing and re-equilibration. Mass spectrometer was set up for a full MS scan in the orbitrap with 120,000 resolution followed by five data-dependent CID MS/MS scans in the linear trap with dynamic exclusion.

[3] = system: Cell line H (CHO cells expressing recombinant antibody); settings: spermine tetrahydrochloride 0, 7, 17, 35 and 100 μM; day 5 samples; FIG. 6
Experimental: Samples were collected on day 5 of the mock perfusion assay. The 35 μM sample served as a control.
An arginine-free formulation of a perfusion media was used for small scale mock perfusion Experiment #3 (arginine concentration studies) according to the experimental design. In small scale mock perfusion Experiment #4 all arginase inhibitors were added to a perfusion media.
Briefly, the CHO cells were seeded in the plate at the targeted density ranging from 10-20×10^6 cells/mL with 3 mL working volume for each well. The cells were cultivated at 36° C., 5% CO2, 85% relative humidity and shaken at 225 rpm in a 50-mm orbital diameter Kuhner incubator (Kuhner AG, Basel, Switzerland) for 3 or 4 days. Every 24 hours, the cells were centrifuged at 200×g for 5 minutes (Beckman Coulter, Brea, Calif.) to collect the spent media and each well was then replenished with 3 mL of fresh media. The collected spent media were analyzed for titer, key metabolites and % high mannose (% HMN) (when necessary). Cells were then harvested and cell counts and viability were measured.
Five different concentrations of spermine were tested in this study. […] The perfusion medium containing 35 μM spermine acted as a control.

[4] = system: Cell line H (CHO cells expressing recombinant antibody); settings: reduction/depletion of spermine in perfusion medium (0-100 μM)
[5] = first series: four arginase inhibitors at 1, 10 and 20 μM vs inhibitor-free control, FIG. 10
[6] = second series: BEC 0, 10 μM, 0.5 mM, DL-α 0, 10 μM, 1.0 mM, 2.0 mM in perfusion medium, FIG. 11

Cl.NCCC[C@](N)(C(=O)O)C(F)F (racemic) [DL-α, DL-α, Diflouromethylornithine Hydrochloride] was tested, and the “% HM (high mannose glycoform content)” value [1, 5] was “most effective in decreasing % HM” and the “% HM (high mannose glycoform content)” value [1, 6] was “% HM was decreased as both inhibitor concentrations increased”.

For Cl.N=C(N)NCCC[C@H](N)C(=O)O [arginine, arginine monohydrochloride], the “% HM (high mannose glycoform content)” value ([1]; arginine 3.686, 1.843 (control), 1.38, 0.92 and 0.46 g/L in perfusion medium, FIG. 9) was “as the arginine concentration is increased the % HM increased”.

Cl.NCCC[C@H](N)C(=O)O [ornithine, L-ornithine monohydrochloride] was tested, and the “% HMN (high mannose glycoform content)” value [2] was “as the ornithine concentration is increased the % HMN increased”.

Cl.Cl.Cl.Cl.NCCCNCCCCNCCCN [spermine, spermine tetrahydrochloride] was tested, and the “amount of ornithine (extracellular)” value [3] was “the amount of ornithine decreased with a decrease in spermine concentration”, the “% HMN (high mannose glycoform content)” value ([1]; spermine tetrahydrochloride 0, 7, 17, 35 (control) and 100 μM in perfusion medium, day 5 samples, FIG. 5) was “as the spermine concentration was reduced, the % HMN decreased” and the Titer [4] was “not affected”.

For S-(2-boronoethyl)-1-cysteine [BEC], the “% HM (high mannose glycoform content)” value [1, 5] was “most effective in decreasing % HM” and the “% HM (high mannose glycoform content)” value [1, 6] was “% HM was decreased as both inhibitor concentrations increased”.
